Results taken from ChEMBL document CHEMBL1201862, “PubChem BioAssay data set” (2004).
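Tested at 5 concentrations; 48 h exposure; 96-well plates; endpoints linearly interpolated, else capped at highest concentration. GI50: concentration for 50% inhibition of growth.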 Calls of active or inactive are those of the source. Rule as the data show it: active = GI50 up to about 1.1 µM and inactive = higher.

Legend:
Assay in all cases: NCI-60 cell line screen, 48 h
DMS-114 = system: DMS-114
RXF 631 = system: RXF 631
SNB-78 = system: SNB-78
DLD-1 = system: DLD-1
DMS-273 = system: DMS-273
XF498 = system: XF498
HOP-18 = system: HOP-18
KM-20L2 = system: KM-20L2
LXFL 529 = system: LXFL 529

SMILES	GI50 (DMS-114)	GI50 (RXF 631)	GI50 (SNB-78)	GI50 (DLD-1)	GI50 (DMS-273)	GI50 (XF498)	GI50 (HOP-18)	GI50 (KM-20L2)	GI50 (LXFL 529)
CSC[S+]([O-])C[C@H](CO)NC(=O)/C=C/c1c(C)[nH]c(=O)[nH]c1=O (stereo partly specified)	0.757 µM (active)	2.58 µM (inactive)	0.318 µM (active)	1.6 µM (inactive)	1.43 µM (inactive)	0.214 µM (active)	2.85 µM (inactive)	0.979 µM (active)	1.96 µM (inactive)
CC(=O)Nc1ccccc1S(=O)(=O)c1ccccc1	> 100 µM (inactive)	> 100 µM (inactive)	> 100 µM (inactive)	> 100 µM (inactive)	> 100 µM (inactive)	79.6 µM (inactive)	> 100 µM (inactive)	> 100 µM (inactive)	> 100 µM (inactive)
N#Cc1cccc(N2C(=O)C3C4C=CC(C3C2=O)C2C(=O)N(c3cccc(C#N)c3)C(=O)C42)c1 (stereo unspecified)	16.3 µM (inactive)	24.7 µM (inactive)	12.7 µM (inactive)	> 46.5 µM (inactive)	15.2 µM (inactive)	15.5 µM (inactive)	> 65.2 µM (inactive)	> 100 µM (inactive)	> 46.5 µM (inactive)
C=C(C)C(=O)/N=C(\N)NC#N	30.5 µM (inactive)	> 100 µM (inactive)	48.3 µM (inactive)	68.9 µM (inactive)	44 µM (inactive)	41.8 µM (inactive)	> 41.8 µM (inactive)	105 µM (inactive)	63.4 µM (inactive)
